Measurements: patent publication US8617614B2, “Sustained release preparation for tissue regeneration therapy” (Ono Pharmaceutical Co., Ltd., priority 2006, dated 2013)

What was measured:
[1] = tested on: STZ induced diabetes model; test: Time course of blood sugar level, STZ induced diabetes model; format: in vivo; details: STZ rat, Test Group 3: 3 mg/kg oral twice daily
Procedure: Female Sprague-Dawley rats (8- to 11-week-old; Japan SLC, Inc.) were intraperitoneally administered 40 mg/kg of a citrate buffer (pH, approx. 4.5) of streptozotocin (STZ; Sigma). A normal control group was intraperitoneally given only the citrate buffer. Two weeks after STZ administration, the blood sugar, nerve conduction velocity and body weight were measured, the animals were divided into groups uniform for these properties, and administration of the test substance was begun. To determine the change over time in blood sugar, the blood sugar level was measured 4, 8 and 12 weeks following the start of test solution administration (on the day prior to nerve conduction velocity measurement). The blood sugar level of blood drawn from the caudal vein was measured using a blood sugar analyzer (Antisense II; Bayer-Sankyo). Following measurement of the blood sugar 12 weeks later, the animals were deprived of food for at least 16 hours and the fasting blood sugar and insulin were measured. In addition, a 2 g glucose tolerance test was carried out in which blood was similarly drawn 30, 60 and 120 minutes after sugar loading, and the blood sugar and insulin values were measured. In Groups 2 to 5, the feeding blood sugar level two weeks after STZ administration was measured. Of rats with blood sugar levels above 300 mg/dL, severely diabetic rats were excluded therefrom, and the remaining rats were used as diabetes model animals. Groups were formed in such a way as to make the respective groups uniform with respect to nerve conduction velocity, blood sugar level and body weight. Administration was carried out in accordance with the intended route of administration for clinical use. In Test Group 3, forced administration was carried out orally using a disposable syringe barrel and a rat stomach probe. In Test Group 4, intramuscular administration was carried out uniformly at four places within the muscle along the sciatic nerve in the femoral portion of the left leg. For subcutaneous administration in test Group 5, the animals were ether anesthetized, and subcutaneous administration was carried out in the dorsal region using a disposable syringe barrel and a disposable 25 G syringe needle. The volume of solution administered was computed based on the latest body weight. The amount of microspheres administered indicates the amount of the present drug included.

[2] = tested on: STZ induced diabetes model; test: Oral glucose tolerance test (OGTT), insulin, STZ induced diabetes model; format: in vivo; details: OGTT 2 g/kg, week 13; STZ rat; Test Group 3: 3 mg/kg oral twice daily
Procedure: Female Sprague-Dawley rats (8- to 11-week-old; Japan SLC, Inc.) were intraperitoneally administered 40 mg/kg of a citrate buffer (pH, approx. 4.5) of streptozotocin (STZ; Sigma). A normal control group was intraperitoneally given only the citrate buffer. Administration was carried out in accordance with the intended route of administration for clinical use. In Test Group 3, forced administration was carried out orally using a disposable syringe barrel and a rat stomach probe. In Test Group 4, intramuscular administration was carried out uniformly at four places within the muscle along the sciatic nerve in the femoral portion of the left leg. For subcutaneous administration in test Group 5, the animals were ether anesthetized, and subcutaneous administration was carried out in the dorsal region using a disposable syringe barrel and a disposable 25 G syringe needle. The volume of solution administered was computed based on the latest body weight. Thirteen weeks after the start of test substance administration, an oral glucose tolerance test (OGTT) was conducted on rats fasted for 18 hours. After drawing blood from the caudal vein of the fasting rats, 2 g/kg of glucose was orally force-fed. About 500 μL of blood was similarly collected from the caudal vein 30, 60 and 120 minutes after glucose administration, of which about 400 μL was EDTA-2Na treated, then centrifuged (3,000 rpm, 4° C., 10 min) with a centrifuge. The plasma was thereby collected, and the blood sugar was measured using a 7170 Clinical Analyzer (Hitachi, Ltd.). The remaining approximately 100 μL of blood was centrifuged (3,000 rpm, 4° C., 10 min) with a centrifuge, the serum was collected, and the insulin level was measured (ELISA method; Levis Insulin Kit (Shibayagi Co., Ltd)).

[3] = Influence on body weight, STZ induced diabetes model; format: in vivo; details: STZ rat, Test Group 3: 3 mg/kg oral twice daily
Procedure: Female Sprague-Dawley rats (8- to 11-week-old; Japan SLC, Inc.) were intraperitoneally administered 40 mg/kg of a citrate buffer (pH, approx. 4.5) of streptozotocin (STZ; Sigma). A normal control group was intraperitoneally given only the citrate buffer.
Administration was carried out in accordance with the intended route of administration for clinical use. In Test Group 3, forced administration was carried out orally using a disposable syringe barrel and a rat stomach probe. In Test Group 4, intramuscular administration was carried out uniformly at four places within the muscle along the sciatic nerve in the femoral portion of the left leg. For subcutaneous administration in test Group 5, the animals were ether anesthetized, and subcutaneous administration was carried out in the dorsal region using a disposable syringe barrel and a disposable 25 G syringe needle. The volume of solution administered was computed based on the latest body weight.
The rat body weights were measured before test substance administration and 14 weeks after the start of test substance administration.

EGF = EGF production promoting effect, angiogenesis kit culture, ELISA; format: cell-based, human; details: 100 nmol/L
Procedure: An angiogenesis kit (Kurabo Industries Ltd.) composed of normal human umbilical vein endothelial cells and normal human skin fibroblasts was procured and used.
Using a carbon dioxide incubator (BNA-121D) and using Angiogenesis Culture 2 provided with the angiogenesis kit as the liquid culture, culturing was carried out in a wet environment at 37° C. with 5% carbon dioxide/95% air.
Immediately after the kit arrived, the cells were cultured for 3 hours, following which the liquid culture was replaced and culturing was continued. Three days after the start of culturing, the liquid culture was again replaced. Six days after the start of culturing, treatment with the present drug was carried out by replacing the liquid culture. The treatment concentration was set to 100 nmol/L in each case. DMSO treatment was carried out as a negative control. Six, 24, 48 and 72 hours after treatment with the present drug, the culture supernatant was collected and furnished for measurement of the growth factors. The measured growth factors were EGF and SDF-1.
The culture supernatant was measured with the following ELISA kits.
Human EGF Immunoassay (R&D Systems Inc., DEG00)

In the case of `O=C(O)COc1cccc2c1CCC=C2CCO/N=C(\c1ccccc1)c1cccnc1` [present drug, ({5-[2-({[(1E)-phenyl(pyridin-3-yl)methylene]amino}oxy)ethyl]-7,8-dihydronaphthalen-1-yl}oxy)acetic acid], the “Blood sugar (mg/dL) 0 weeks” value [1] is reported as 567 ± 73 mg/dL, the “Blood sugar (mg/dL) 4 weeks” value [1] is reported as 555 ± 39 mg/dL and the “Blood sugar (mg/dL) 8 weeks” value [1] is reported as 600 ± 64 mg/dL. For the same compound, the “Blood sugar (mg/dL) 12 weeks” value [1] was 510 ± 84 mg/dL, the “blood sugar relative to Test Group 2” value ([1]; at any of the times) was “A significant decline in blood sugar was not observed” and the “Insulin (ng/mL) After 30 minutes” value [2] was 2.197 ± 2.062 ng/mL. The “Insulin (ng/mL) After 60 minutes” value [2] was 1.808 ± 1.521 ng/mL, the “Insulin (ng/mL) After 120 minutes” value [2] was 2.130 ± 2.087 ng/mL and the “Insulin (ng/mL) Before glucose loading” value [2] was 2.138 ± 1.722 ng/mL. The “Body weight (g) 0 weeks” value [3] was 219.1 ± 12.2 g, the “body weight relative to Test Group 2” value ([3]; week 14) was “significant weight decreased” and the “EGF relative to the solvent control group” value (EGF; 72 hours after treatment) was “significantly increased”. For the same compound, the “EGF, Drug group” value (EGF; culture supernatant 72 hours after treatment) was 4995 ± 442 pg/mL.
